As a reminder, the Cmax is the maximum level reached in the sampled fluid or tissue. By Tmax is commonly meant the time at which the peak concentration occurs.

Experimental findings from US10351570B2, “Compounds and uses thereof” (Kala Pharmaceuticals, Inc., priority 2013, dated 2019) are described below.

Structures are written as SMILES. Read-outs that look alike come from different tables or passages of the source.

A short description of data set [1]: Milling with Pluronic F127 into mucus penetrating particles; particle size by dynamic light scattering. The class given is physicochemical. Particulars: formulated as MPP, milled with Pluronic F127 in DPBS; for Particle Size: dynamic light scattering. The source says: Compounds of the present invention synthesized in accordance with the preceding Examples were formulated as mucus penetrating particles (MPP). Specifically, compounds I-2, compound I-5, and compound I-6 were each milled in the presence of Pluronic F127 (F127) to determine whether F127 1) aids particle size reduction to several hundreds of nanometers and 2) physically (non-covalently) coats the surface of generated nanoparticles with a mucoinert coating that would minimize particle interactions with mucus constituents and prevent mucus adhesion.
A milling procedure was employed in which an aqueous dispersion containing coarse drug particles and Pluronic F127 (F127) was milled with grinding medium until particle size was reduced below 400 nm as measured by dynamic light scattering. Table 4 lists the size of particles and polydispersity index (a measure of the width of the particle size distribution) generated using this technique. In this example suspensions were buffered using DPBS (Dulbecco's Phosphate-Buffered Saline) which yields a suspension that is both isotonic and has a physiologically relevant pH.

The nature of data set [2]: Nanoparticle mobility in human cervicovaginal mucus (dark field microscopy). To be noted: low pH of CVM. Here is the method:
In order to determine whether the generated nanoparticles have reduced interactions with mucins and are therefore able to move within mucus without becoming trapped, particles were incubated with human cervicovaginal mucus (CVM) and observed via dark field microscopy. In a typical experiment, 51 μL of the nanoparticle suspension was added to 20 μl of CVM. Observations were made in a minimum of three distinct and randomly selected areas of the CVM sample. Control particles with known behavior were used to qualify the CVM sample as appropriate for the assay.

Data set [3] in a line: PK study after topical ocular administration of compound I-2 solution. The format is in vivo, Dutch-belted rabbits. Particulars: Dutch-belted, rabbit, topical or ocular, 50 μL of 0.5% solution, topical 0.5% solution, 50 μL BID 5 days; for AUC(0-t): read-out: AUC0-12 hr. Here is the method: (§1) In this example, the formulation consisted of 0.5% I-2, 0.5% F127, in 20 mM citrate buffer pH 6.0 and NaCl (added to produce isotonic formulation).
(§2) The portion of the retina and choroid collected and analyzed was an 8-mm round punch where the macula is located in humans.

The nature of data set [4]: Draize-Ocular Irritation assessment. The format is in vivo, Dutch-belted rabbits. Particulars: topical 0.5% solution, 50 μL BID 5 days. Here is the method:
as §1, §2

Data set [5] is described as follows: Physical and chemical stability of I-2 solutions at room temperature. Particulars: F127 (0.5%), 20 mM Tris (pH 8); precipitation. The class given is physicochemical. The method, then: Solutions of I-2 were formulated with F127 or Tween 80, and under a range of pH values. Briefly, I-2 was first completely solubilized using an acidic solution (0.1 N HCl) at a high concentration of […]. The final formulation was diluted to a solution consisting of 0.5% (w/v) I-2 into buffered solution containing F127 or Tween 80 as described in Table 5. Following dilution, the pH of the formulations was measured using pH indicator strips (PEHANON) and confirmed to be within expected range (±0.5 units of target pH).
Physical and chemical stability of the solutions at room temperature (20-25° C.) were assessed after 7-10 days (tfinal). Physical instability in a solution can manifest as the precipitation and sedimentation of the drug of interest and excipients over time. To assess physical stability, the formulations at tfinal were first filtered through a 300 kDa modified polyethersulfone filter membrane (Nanosep) to remove any precipitate in the solution. The concentration of I-2 in the filtrates was then measured and compared to that at t=0. The purity of I-2 in the unfiltered solution was also evaluated at tfinal, to further confirm chemical stability. This parameter is defined by the area under the signal peak that is attributed to compound I-2 as a percentage of all peaks reported by in the sample by HPLC (% peak area).

In the case of `Cc1ccc(Oc2ccc3nc(NC(=O)CC4COC4)cn3n2)cc1NC(=O)c1cccc(F)c1` [Compound I-6], in data set [1], the “Polydispersity Index (PDI)” value worked out at 0.206 and the “Particle Size” value is 245 nm.

Regarding `Cc1cc(C(=O)Nc2cc(Oc3ccc4nc(NC(=O)NC5COC5)cn4n3)ccc2C)n(C)n1` [Compound I-5], in data set [1], the “Polydispersity Index (PDI)” value is recorded as 0.160 and the “Particle Size” value was 276 nm.

As to `Cc1cc(C(=O)Nc2cc(Oc3ccc4nc(NC(=O)CN5CC[C@H](N(C)C)C5)cn4n3)ccc2C)n(C)n1` [Compound I-2], the “solubility in CVM” value in data set [2] is on record as “soluble”. In addition, in data set [3] (Choroid (8-mm punch)), the peak level (Cmax) was 1790 nM, the Tmax worked out at 2 h and the AUC(0-t) was determined as 12.5 µM·h. For the same compound, in data set [3] (Plasma), the highest level (Cmax) was 5.96 nM, the Tmax turned out to be 0.5 h and the AUC(0-t) stood at 0.0256 µM·h. The half-life in data set [3] (Plasma, read-out: t½ (converted)) was 3.63 h. In addition, in data set [3] (Retina (8-mm punch)), the peak level (Cmax) was 218 nM, the Tmax is 0.5 h and the AUC(0-t) was found to be 2.06 µM·h. In addition, the “Draize-Ocular Irritation” value in data set [4] was “no irritation”. Moreover, the “physical stability of solution” value in data set [5] is listed as “major physical instability”.
